Measured values: patent US10294247B2, “Beta-lactamase inhibitors” (VenatoRx Pharmaceuticals, Inc., priority 2014, dated 2019)
One block for each compound: values may come before it.

Key:
Format in all cases: cell-based
[1] = system: E. cloacae expressing the Class C P99; experiment: broth microdilution MIC assay, E. cloacae P99; conditions: Enterobacter cloacae, read-out: MIC alone
Text: (§1) To determine the ability of test compounds to potentiate the inhibition of the growth of bacterial strains that produce beta-lactamase enzymes, classic cell based broth microdilution MIC assays are employed. Six bacteria strains producing beta-lactamase enzymes are used: E. coli expressing the Class A Extended Spectrum Beta-Lactamase (ESBL) CTX-M-15, E. cloacae expressing the Class C P99, K. pneumoniae expressing the Class A carbapenemase KPC-3, P. aeruginosa expressing the Class B carbapenemase VIM-2, K. pneumoniae expressing the class A carbapenemase KPC-2 and the class B carbapenemase VIM-4, and S. aureus producing the Class A penicillinase PC-1. The assay is conducted in Cation Adjusted Mueller Hinton Broth (CAMHB, BD #212322, BD Diagnostic Systems, Sparks, Md.). Bacteria strains are grown for 3-5 hours in CAMBH broth. Test compounds are added to a microtiter plate in 2-fold serial dilutions in CAMHB in a final concentration range of 32 μg/mL to 0.25 μg/ml. An overlay of CAMHB containing a Beta-lactam is added to the compounds at a final static concentration of 4 μg/mL. […] After inoculation the plates are incubated for 16-20 hours at 37° C. then the Minimal Inhibitory Concentration (MIC) of the test compound is determined visually.

[2] = system: E. coli expressing the Class A Extended Spectrum Beta-Lactamase (ESBL) CTX-M-15; experiment: broth microdilution MIC assay, E. coli CTX-M-15; conditions: Escherichia coli, read-out: MIC alone
Text: as §1

[3] = system: P. aeruginosa expressing the Class B carbapenemase VIM-2; experiment: broth microdilution MIC assay, P. aeruginosa VIM-2; conditions: Pseudomonas aeruginosa, read-out: MIC alone
Text: as §1

[4] = system: K. pneumoniae expressing the Class A carbapenemase KPC-3; experiment: broth microdilution MIC assay, K. pneumoniae KPC-3; conditions: Klebsiella pneumoniae, read-out: MIC alone
Text: as §1

[5] = system: K. pneumoniae expressing the class A carbapenemase KPC-2 and the class B carbapenemase VIM-4; experiment: broth microdilution MIC assay, K. pneumoniae KPC-2 and VIM-4; conditions: Klebsiella pneumoniae; partner antibiotic alone, no inhibitor; K. pneumoniae expressing KPC-2 and VIM-4; CAMHB
Text: as §1

[6] = system: S. aureus producing the Class A penicillinase PC-1; experiment: broth microdilution MIC assay, S. aureus PC-1; conditions: Staphylococcus aureus; partner antibiotic alone, no inhibitor; S. aureus producing Class A penicillinase PC-1; CAMHB
Text: as §1

Compound: CC(C)(O/N=C(\C(=O)N[C@@H]1C(=O)N2C(C(=O)[O-])=C(C[n+]3ccccc3)CS[C@H]12)c1csc(N)n1)C(=O)O [Ceftazidime]
- MIC [1]: 128 µg/mL
- MIC [2]: > 128 µg/mL

Compound: C[C@@H](O)[C@H]1C(=O)N2C(C(=O)O)=C(S[C@@H]3CN[C@H](C(=O)N(C)C)C3)[C@H](C)[C@H]12 [Meropenem]
- MIC [3]: 16 µg/mL
- MIC [4]: > 128 µg/mL
- MIC [5]: 64 µg/mL

- MIC [6]: 64 µg/mL
Compound: CCN1CCN(C(=O)N[C@@H](C(=O)N[C@@H]2C(=O)N3[C@@H]2SC(C)(C)[C@@H]3C(=O)O)c2ccccc2)C(=O)C1=O [Piperacillin]
